Columns and labels:
[1] = test system: C. beijerinckii NCIMB 8052; test: Germination and sequential batch cultures of C. beijerinckii NCIMB 8052 grown at 37° C. (growth OD600, final pH, ceric ion reactive compounds); assay type: cell-based, Clostridium beijerinckii
Experimental: (§1) Clostridium acetobutylicum ATCC 824 and C. beijerinckii NCIMB 8052 are available from several commercial microbial culture collections including the American Type Culture Collection (ATCC), Manassas, Va., USA. The strain grown at 30 C or 37 C in YE broth, which contained, per liter: 5.0 g yeast extract, 2.5 g casamino acids, 1.0 g L-asparagine, 0.5 g cysteine·HCl, 56 mg K2HPO4, 56 mg KH2PO4, 82 mg anhydrous MgSO4, 8 mg FeSO4.H2O, 6 mg MnSO4.H2O and 10 g glucose. Alternatively, strains were grown in YEPG broth, which was identical to YE expect that K2HPO4 and KH2PO4 were increased to 145 mg/L each and glucose was increased to 60 g/L. The pH of the media was adjusted to 7.2 using 45% KOH prior to sterilization by autoclaving. Media were solidified by addition of 1.5% Bacteriological Agar, Acumedia Manufacturers, Inc., Lansing, Mich. All cultures were grown in anaerobic conditions using the AnaeroPack System, Mitsubishi Gas Chemical Co., Inc., Japan, and GasPak EZ Gas Generating Sachets, Becton, Dickinson and Co., Sparks, Md. Spore stocks were kept at room temperature on agar-solidified media and were activated by suspending spores in 0.5 mL to 1.0 mL of medium followed by heating for 10 min at 80 C before inoculation into growth medium.
(§2) Growth of bacterial cultures was measured spectrophotometrically using optical density at 600 nm and pH of cell-free culture supernatants was measured using a hand-held Shindengen ISFET pH Meter KS501, Shendengen Electric Manufacturing Co., Ltd., Bannockburn, Ill.
(§3) Total alcohols in cell-free culture supernatants were measured using a modification of a colorimetric method based on ceric ammonium nitrate (Reid and Truelove, 1952). The ceric ion reagent was prepared by adding 1.3 mL of concentrated nitric acid to 40 mL of distilled water, then 10.96 g of ceric ammonium nitrate was dissolved in the dilute nitric acid solution and the solution was brought to a final volume of 50 mL. For the assay, […] of butanol standard or culture supernatant was mixed with […] distilled water in a disposable plastic cuvette followed by addition of […] of the ceric ion reagent. The sample was mixed by inverting the cuvette six times then exactly two minutes later the optical density at 500 nm wavelength was measured. The concentration of total alcohols was determined by comparison with a standard curve prepared by using butanol diluted in distilled water.
Spores of C. beijerinckii NCIMB 8052 were germinated and grown overnight at 37 C under anaerobic conditions in YEPG medium that either contained 50 nM of peptide SEQ ID NO: 145 or no added peptide. After about 24 h of growth, […] of the untreated culture was transferred (transfer 1) to each of two flasks that contained 10 mL of YEPG with either no treatment or with 50 nM peptide SEQ ID NO: 145. At the same time, 10 μL of the culture that was germinated in the presence of peptide SEQ ID NO: 145 was also transferred to 10 mL of YEPG that contained 50 nM of peptide SEQ ID NO: 145. Thereafter, […] of each culture was transferred, at the same time, every 24-48 h to 10 mL of fresh YEPG that contained the same peptide treatment or no treatment. Each culture was stopped after 72 hours of incubation and optical density, pH and ceric ion reactive chemicals were measured. Addition of peptide SEQ ID NO: 145 appeared to have no effect on endpoint measurements of the growth of C. beijerinckii NCIMB 8052 after germination or during sequential transfers of cultures at 37° C. (Table 18 and FIG. 10). All three cultures stopped growing at the second transfer. Likewise, there was no apparent effect on endpoint measurements of pH or ceric ion reactive compounds (Tables 19 and 20 and FIGS. 11 and 12).

[2] = test system: C. beijerinckii NCIMB 8052; test: Sequential batch cultures of C. beijerinckii NCIMB 8052 grown at 30° C. in YEPG (growth OD600, final pH, ceric ion reactive compounds); assay type: cell-based, Clostridium beijerinckii
Experimental: as §1, §2, §3
Spores of C. beijerinckii NCIMB 8052 were germinated and grown overnight at 30 C under anaerobic conditions in YEPG medium. After about 24 h of growth, […] of the culture was transferred (transfer 1) to each of four flasks that contained 10 mL of YEPG and either had no treatment or were treated with peptide SEQ ID NO: 145 (see Table 8) at 1 nM, 10 nM or 50 nM. Thereafter, […] of each culture was transferred, at the same time, every 24-48 h to 10 mL of fresh YEPG that contained the same peptide treatment or no treatment. Each culture was stopped after 96 hours of incubation and optical density, pH and ceric ion reactive chemicals were measured. Sequential batch culturing was continued through 6 transfers at which point all cultures appeared to be growing to the same extent (Table 12 and FIG. 4).

[3] = 50 nM added after germination, transfer 1, 72 h culture
[4] = 50 nM added after germination, transfer 2, 72 h culture
[5] = 50-50 (germinated and transferred in 50 nM), transfer 1, 72 h culture
[6] = 50-50 (germinated and transferred in 50 nM), transfer 2, 72 h culture
[7] = 50-50 (spores germinated in 50 nM peptide), transfer 0 (germinated culture), 72 h culture
[8] = 10 nM, transfer 1, 96 h culture
[9] = 10 nM, transfer 2, 96 h culture
[10] = 10 nM, transfer 3, 96 h culture
[11] = 10 nM, transfer 4, 96 h culture
[12] = 10 nM, transfer 5, 96 h culture
[13] = 10 nM, transfer 6, 96 h culture
[14] = 50 nM, transfer 1, 96 h culture
[15] = 50 nM, transfer 2, 96 h culture
[16] = 50 nM, transfer 3, 96 h culture
[17] = 50 nM, transfer 4, 96 h culture
[18] = 50 nM, transfer 5, 96 h culture
[19] = 50 nM, transfer 6, 96 h culture

In the case of “IRLIT (Derived from Clostridium beijerinckii SEQ ID NO: 141) [peptide SEQ ID NO: 145]”, the “Effect on germination and growth (visual observations through the course of growth)” value ([1]; 50 nM) was “repressive effect on germination and growth”, the “Final pH” value [1, 3] was 4.1 and the “Optical density at 600 nm” value [1, 3] was 1.313. For the same substance, the “Optical density of ceric ion reactive compounds measured at 500 nm” value (“Optical density … at 500 nm” for short) [1, 3] was −0.026, the “Final pH” value [1, 4] was 6.5 and the “Optical density at 600 nm” value [1, 4] was 0.011. For the same substance, the “Optical density … at 500 nm” value [1, 4] was 0.006, the “Effect on endpoint measurements of growth” value ([1]; 50 nM, after germination or during sequential transfers) was “no effect” and the “Final pH” value [1, 5] was 4.1. For the same substance, the “Optical density at 600 nm” value [1, 5] was 1.420, the “Optical density … at 500 nm” value [1, 5] was −0.038 and the “Final pH” value [1, 6] was 6.6. The “Optical density at 600 nm” value [1, 6] was 0.011, the “Optical density … at 500 nm” value [1, 6] was 0.002 and the “Final pH” value [1, 7] was 4.1. The “Optical density at 600 nm” value [1, 7] was 1.158, the “Optical density … at 500 nm” value [1, 7] was −0.017 and the “Culture degeneration in terms of production of total alcohols” value [2] was “transiently increase culture degeneration”. For the same substance, the “Final pH” value ([2]; 1 nM, transfer 1, 96 h culture) was 5.3, the “Optical density at 600 nm” value ([2]; 1 nM, transfer 1, 96 h culture) was 2.086 and the “Optical density … at 500 nm” value ([2]; 1 nM, transfer 1, 96 h culture) was 0.065. The “Final pH” value ([2]; 1 nM, transfer 2, 96 h culture) was 5.3, the “Optical density at 600 nm” value ([2]; 1 nM, transfer 2, 96 h culture) was 2.086 and the “Optical density … at 500 nm” value ([2]; 1 nM, transfer 2, 96 h culture) was 0.032. For the same substance, the “Final pH” value ([2]; 1 nM, transfer 3, 96 h culture) was 5.1, the “Optical density at 600 nm” value ([2]; 1 nM, transfer 3, 96 h culture) was 2.106 and the “Optical density … at 500 nm” value ([2]; 1 nM, transfer 3, 96 h culture) was 0.054. The “Final pH” value ([2]; 1 nM, transfer 4, 96 h culture) was 5.3, the “Optical density at 600 nm” value ([2]; 1 nM, transfer 4, 96 h culture) was 2.115 and the “Optical density … at 500 nm” value ([2]; 1 nM, transfer 4, 96 h culture) was 0.041. For the same substance, the “Final pH” value ([2]; 1 nM, transfer 5, 96 h culture) was 5.3, the “Optical density at 600 nm” value ([2]; 1 nM, transfer 5, 96 h culture) was 2.090 and the “Optical density … at 500 nm” value ([2]; 1 nM, transfer 5, 96 h culture) was 0.061. The “Final pH” value ([2]; 1 nM, transfer 6, 96 h culture) was 5.3, the “Optical density at 600 nm” value ([2]; 1 nM, transfer 6, 96 h culture) was 2.075 and the “Optical density … at 500 nm” value ([2]; 1 nM, transfer 6, 96 h culture) was 0.062. The “Final pH” value [2, 8] was 5.3, the “Optical density at 600 nm” value [2, 8] was 2.080 and the “Optical density … at 500 nm” value [2, 8] was 0.050. For the same substance, the “Final pH” value [2, 9] was 5.3, the “Optical density at 600 nm” value [2, 9] was 2.093 and the “Optical density … at 500 nm” value [2, 9] was 0.008. For the same substance, the “Final pH” value [2, 10] was 5.0, the “Optical density at 600 nm” value [2, 10] was 2.078 and the “Optical density … at 500 nm” value [2, 10] was 0.025. For the same substance, the “Final pH” value [2, 11] was 5.3, the “Optical density at 600 nm” value [2, 11] was 2.108 and the “Optical density … at 500 nm” value [2, 11] was 0.047. For the same substance, the “Final pH” value [2, 12] was 5.4, the “Optical density at 600 nm” value [2, 12] was 2.069 and the “Optical density … at 500 nm” value [2, 12] was 0.065. The “Final pH” value [2, 13] was 5.3, the “Optical density at 600 nm” value [2, 13] was 2.062 and the “Optical density … at 500 nm” value [2, 13] was 0.055. For the same substance, the “Final pH” value [2, 14] was 5.4, the “Optical density at 600 nm” value [2, 14] was 2.102 and the “Optical density … at 500 nm” value [2, 14] was 0.060. The “Final pH” value [2, 15] was 5.3, the “Optical density at 600 nm” value [2, 15] was 2.023 and the “Optical density … at 500 nm” value [2, 15] was 0.023. For the same substance, the “Final pH” value [2, 16] was 5.2, the “Optical density at 600 nm” value [2, 16] was 1.936 and the “Final pH” value [2, 17] was 5.3. For the same substance, the “Optical density at 600 nm” value [2, 17] was 2.061, the “Optical density … at 500 nm” value [2, 17] was 0.039 and the “Final pH” value [2, 18] was 5.3. For the same substance, the “Optical density at 600 nm” value [2, 18] was 2.120, the “Optical density … at 500 nm” value [2, 18] was 0.051 and the “Final pH” value [2, 19] was 5.3. For the same substance, the “Optical density at 600 nm” value [2, 19] was 2.046, the “Optical density … at 500 nm” value [2, 19] was 0.059 and the “Growth of treated cultures during 96 h of incubation” value ([2]; 1, 10, 50 nM, dose dependent manner, data not shown) was “slow the growth”. The “Final pH” value ([2]; all cultures (0, 1, 10, 50 nM), after the third transfer) was about 5.3 and the “Number of times that cultures could be transferred” value ([2]; through six culture transfers, in comparison with an untreated culture) was “did not affect”.

— patent US20150031102A1, “METHODS AND COMPOSITIONS FOR ENHANCED PRODUCTION OF BUTANOL BY CLOSTRIDIA” (Butrolix LLC, priority 2012, published 2015)
